{"source": "patent US20180303878A1", "about": "“TREATMENT FOR INFECTION COMPOSED OF MENSTRUAL STEM CELLS” (CELLS FOR CELLS, S.P.A., priority 2015, published 2018)", "assay_type_in_all_cases": "in vivo, C57BL6/j mice", "key": {"CLP-induced sepsis [1]": {"test_system": "CLP-induced sepsis", "experiment": "Cytokine multiplex array evaluation in CLP mice", "settings": "40 hours post-CLP, P≤0.05", "protocol": "(§1) In vivo studies were performed at the Universidad de los Andes-Cells for Cells Animal Facility (Santiago, Chile) in accordance with the institutional guidelines for the care and use of laboratory animals in research, revised and approved by the Institutional Ethical Committee for animal experimentation. C57BL6/j mice (8 to 12 weeks old; Jackson Laboratories, Bar Harbor, Me., USA) received ad libitum access to food and water during the whole experimental procedure. CLP-induced sepsis was performed as described previously (Rittirsch D et al., Immunodesign of experimental sepsis by cecal ligation and puncture. Nat Protoc. 2009) with some modifications. Briefly, mice were anesthetized with inhaled Sevofluorane (Baxter, Guayama, Puerto Rico) by using an anesthetic vaporizer. […]\nThe levels of inflammatory cytokines-monocyte chemoattractant protein-1 (MCP-1), TNF-α, IL-6, and […]—in CLP mice serum samples were determined by using a commercial BD™ Cytometric Bead Array Mouse Inflammation Kit (BD Biosciences Pharmingen, San Diego, Calif., USA) in accordance with the instructions of the manufacturer. Analysis was carried out by flow cytometry, and the concentration (in picograms per milliliter) was determined by using FCAP Array software (BD Biosciences). The parameters were determined 24 and 40 hours after CLP surgery."}, "CLP-induced sepsis [2]": {"test_system": "CLP-induced sepsis", "experiment": "Blood biochemical analysis in CLP mice", "settings": "serum 24 hours post-surgery; sham 47.67±3.18, saline 90±21.47", "protocol": "as §1, with “modifications.” for “modifications. Briefly, mice were anesthetized with inhaled Sevofluorane (Baxter, Guayama, Puerto Rico) by using an anesthetic vaporizer.”\n(§2) Three hours after CLP-induced sepsis, mice were randomized and distributed into different experimental groups to receive single injections of saline (vehicle) (n=16), antibiotics (AB) (n=22), MenSCs (n=21), MenSCs+AB (n=22), MenSC CM (n=16), or MenSC CM+AB (n=22). […] For Kaplan-Meier survival curves, animals were assessed after CLP-induced sepsis every 12 hours for 4 days. […]\nPlasma levels of blood urea nitrogen (BUN), bilirubin, alanine aminotransferase (ALT), aspartate aminotransferase (AST), alkaline phosphatase (ALP), albumin, amylase, and glucose were evaluated by using the Piccolo Xpress™ Chemistry Analyzer (Abaxis, Union City, Calif., USA) in accordance with the instructions of the manufacturer. […]"}, "CLP-induced sepsis [3]": {"test_system": "CLP-induced sepsis", "experiment": "Bacterial numbers in blood, peritoneal cavity and spleen in CLP-induced sepsis", "settings": "24 hours post-CLP, in comparison with saline group, P≤0.05", "protocol": "as §1, with “vaporizer. After a 1-cm incision was performed, the cecum was exposed and ligated in the middle portion with 5-0 dafilon suture (Braun, Rubi, Spain), punctured once with an 18-gauge needle (in order to induce high-grade sepsis), and returned to the peritoneal cavity. The abdominal incision was sutured with catgut 5-0 (Braun, Bogota, Colombia), and the skin was closed with Histoacryl (Braun).” for “vaporizer.”\nTotal blood, peritoneal fluid, and homogenized spleen in sterile saline were plated in a 10-fold dilution on blood agar plates and incubated at 37° C. overnight, and the number of CFUs was determined."}, "CLP-induced sepsis [4]": {"test_system": "CLP-induced sepsis", "experiment": "Survival in polymicrobial CLP-induced sepsis (Kaplan-Meier)", "settings": "96 hours after treatment; treatment 3 hours after CLP; MenSCs 7.5×10^5 cells/mice intra-peritoneal, Enrofloxacin 5 mg/kg", "protocol": "as §1, §2\nData are expressed as mean±standard error. […]"}}}
{"compound": "CCN1CCN(c2cc3c(cc2F)c(=O)c(C(=O)O)cn3C2CC2)CC1", "note": "[AB, Enrofloxacin]", "values": [{"measurement": "IL-6 serum levels", "setting": "CLP-induced sepsis [1]; in comparison with saline group", "value": "decreased"}, {"measurement": "levels of IL-10", "setting": "CLP-induced sepsis [1]; in comparison with untreated mice", "value": "reduction"}, {"measurement": "alkaline phosphatase (ALP) concentration", "setting": "CLP-induced sepsis [2]", "value": "74.25±12.03", "unit": "U/l"}, {"measurement": "CFU counts in peritoneal lavage", "setting": "CLP-induced sepsis [3]", "value": "decreased"}, {"measurement": "survival rate", "setting": "CLP-induced sepsis [4]", "value": 73, "unit": "%"}]}
